Data: patent publication US20220062319A1, “COMBINATION IN THE TREATMENT OF NONTUBERCULOUS MYCOBACTERIAL DISEASES” (priority 2019, published 2022)
In brackets after ≈: the same amount, converted by molar mass. Like-named read-outs stand apart in the source and are kept apart here.

Experiments:
M. fortuitum = assay: Bedaquiline MIC, M. fortuitum; assay type: cell-based
Mycobacterium xenopi = assay: REMA MIC, control strain; assay type: cell-based; conditions: 168 h, control strain M. xenopi (×1), 7H9, 7 days
Mycobacterium kansasii = assay: REMA MIC and MBC, M. kansasii; assay type: cell-based
M. marinum = assay: Bedaquiline MIC, M. marinum; assay type: cell-based; conditions: Mycobacterium marinum, n=1, read-out: MIC Median
[1] = tested on: other mycobacterial species; assay: organism not typed; assay type: cell-based
[2] = in vivo; cited from earlier work
[3] = tested on: M. avium/M. intracellulare (MAC); assay: Bedaquiline MIC, MAC; assay type: cell-based
Mycobacterium marinum = assay: REMA MIC and MBC, M. marinum; assay type: cell-based
M. smegmatis = assay: Bedaquiline MIC, M. smegmatis; assay type: cell-based
M. abscessus = assay: Bedaquiline MIC, M. abscessus; assay type: cell-based; conditions: Mycobacteroides abscessus
M. kansasii = assay: Bedaquiline MIC, M. kansasii; assay type: cell-based; conditions: Mycobacterium kansasii, n=1, read-out: MIC Median
M. ulcerans = assay: Bedaquiline MIC, M. ulcerans; assay type: cell-based; conditions: Mycobacterium ulcerans
Mycobacterium chimaera = assay: REMA MIC and MBC, M. chimaera; assay type: cell-based; conditions: Mycobacterium intracellulare, M. chimaera clinical isolates (×3), one line per isolate; for MIC: REMA
[4] = tested on: Mycobacterium intracellulare; assay: REMA MIC and MBC, M. intracellulare; assay type: cell-based; conditions: M. intracellulare clinical isolates (×4), one line per isolate; for MIC: REMA
[5] = tested on: NTM clinical isolates (slow grower mycobacteria); assay: MBC determination, NTM clinical isolates overall; assay type: cell-based; conditions: MBC = lowest concentration killing 100% of the bacteria
Procedure: The MBC test allows determination of the minimum concentration of an agent necessary to achieve a bactericidal effect. The MBC was determined once the MIC was determined previously. To perform the MBC, the dilution representing the MIC and at least two of the more concentrated test product dilutions were plated and enumerated to determine viable CFU/ml. […] NTM clinical isolates used for this study were isolated from patients. In total, there were 18 isolates (in addition to the control strain): mycobacterium avium (x4 isolates), mycobacterium intracellulare (x4), mycobacterium chimaera (x3), mycobacterium kansasii (x2), mycobacterium ulcerans (x2), mycobacterium simiae (x2) and mycobacterium marinum (x1). […] MBC was considered the lowest concentration at which the bedaquiline kills 100% of the bacteria.

Mycobacterium simiae = assay: REMA MIC and MBC, M. simiae; assay type: cell-based; conditions: M. simiae clinical isolates (×2), one line per isolate; for MIC: REMA
M. bovis = assay: microbe, parasite or virus in culture; assay type: cell-based; conditions: Mycobacterium tuberculosis variant bovis, read-out: MIC Median
Mycobacterium avium = assay: REMA MIC and MBC, M. avium; assay type: cell-based; conditions: M. avium clinical isolates (×4), one line per isolate; for MIC: REMA

For `COc1nc2ccc(Br)cc2cc1[C@@H](c1ccccc1)[C@@](O)(CCN(C)C)c1cccc2ccccc12` [Bedaquiline, (alpha S, beta R)-6-bromo-alpha-[2-(dimethylamino)ethyl]-2-methoxy-alpha-1-naphthalenyl-beta-phenyl-3-quinolineethanol], the MIC (M. fortuitum; Mycolicibacterium fortuitum, n=5, read-out: MIC Median) was 0.01 mg/L (≈ 0.018 µM), the MIC range (M. fortuitum; n=5) was 0.007 to 0.010 mg/L and the MIC (Mycobacterium xenopi) was > 2 mg/L. For the same compound, the MIC (Mycobacterium kansasii) was 0.015 mg/L (≈ 0.027 µM), the MIC (M. marinum) was 0.003 mg/L (≈ 0.0054 µM) and the MIC [1] was < 0.1 mg/L. For the same compound, the “improvement of bioavailability with food” value [2] was “approximately 2 fold”, the MIC ([3]; Mycobacterium avium, n=7, read-out: MIC Median) was 0.01 mg/L (≈ 0.018 µM) and the MIC range ([3]; n=7) was 0.007 to 0.010 mg/L. The MIC (Mycobacterium marinum) was 0.015 mg/L (≈ 0.027 µM), the MBC (Mycobacterium marinum; M. marinum clinical isolate (×1)) was 2 mg/L (≈ 3.6 µM) and the MIC (M. smegmatis; Mycolicibacterium smegmatis, n=7, read-out: MIC Median) was 0.007 mg/L (≈ 0.0126 µM). For the same compound, the MIC range (M. smegmatis; n=7) was 0.003 to 0.10 mg/L, the MIC (M. abscessus; 1 isolate of M. abscessus, read-out: MIC) was 0.25 mg/L (≈ 0.45 µM) and the MIC (M. abscessus; M. abscessus, n=1, read-out: MIC Median) was 0.25 mg/L (≈ 0.45 µM). The MIC (M. kansasii) was 0.003 mg/L (≈ 0.0054 µM), the MIC (M. ulcerans; 1 isolate of M. ulcerans, read-out: MIC) was 0.5 mg/L (≈ 0.9 µM) and the MIC (M. ulcerans; M. ulcerans, n=1, read-out: MIC Median) was 0.5 mg/L (≈ 0.9 µM). For the same compound, the MBC (Mycobacterium chimaera) was 1 mg/L (≈ 1.8 µM), the MIC (Mycobacterium chimaera) was 0.015 mg/L (≈ 0.027 µM) and the MIC (Mycobacterium chimaera; read-out: MIC) was 0.007 mg/L (≈ 0.0126 µM). For the same compound, the MBC [4] was 2 mg/L (≈ 3.6 µM), the MIC [4] was 0.015 mg/L (≈ 0.027 µM) and the MIC ([4]; read-out: MIC) was 0.007 mg/L (≈ 0.0126 µM). For the same compound, the bactericidal activity [5] was “bactericidal activity for the majority of clinical isolates tested”, the MBC (Mycobacterium simiae) was 1 mg/L (≈ 1.8 µM) and the MIC (Mycobacterium simiae) was 0.015 mg/L (≈ 0.027 µM). The MIC (Mycobacterium simiae; read-out: MIC) was 0.03 mg/L (≈ 0.054 µM), the MIC (M. bovis) was 0.003 mg/L (≈ 0.0054 µM) and the MBC (Mycobacterium avium) was 1 mg/L (≈ 1.8 µM). The MIC (Mycobacterium avium) was 0.015 mg/L (≈ 0.027 µM) and the MIC (Mycobacterium avium; read-out: MIC) was 0.007 mg/L (≈ 0.0126 µM).
